Measured values: patent US9751932B2, “Anti-big-endothelin-1 (big-ET-1) antibodies and uses thereof” (Regeneron Pharmaceuticals, Inc., priority 2012, dated 2017)
Entries after “also recorded” stand apart in the source; their conditions may differ.

Assays:
Type in all cases: in vivo, mouse
[1] = tested on: hypoxia-induced pulmonary hypertension in C57BL/6 male mice; assay: Blocking/prevention of hypoxia-induced pulmonary hypertension (dosing prior to and during hypoxia); conditions: 18th day of hypoxia
Description: Ultrasound measurements were acquired using the following protocol. Mice were anesthetized, placed in a supine position on a heated platform (THM 100, Indus Instruments) and 2D imaging of the pulmonary infundibulum (B- and M-mode) was carried out using a Vevo 2100 ultrasound system (VisualSonics). Images were obtained from the parasternal short-axis view at the level of the aortic valve. Pulsed-wave Doppler measurements were obtained at the tip of the pulmonary valve leaflets once the scanhead was aligned for maximal laminar flow. In addition, M-mode recordings of the right ventricle were acquired at the short axis B-mode imaging plane to obtain right ventricular free-wall dynamics through the cardiac cycle.
Ultrasound data analysis, performed in a blinded manner, analyzed the following parameters: Diastolic and systolic right ventricular free-wall thickness (RVFW, short axis M-mode), pulmonary artery diameter at end-systole (short axis B-mode), and pulmonary artery flow (PA flow, PW Doppler). From these measurements, time-velocity integral of pulmonary flow, pulmonary artery cross-sectional area (PA CSA), and right ventricle cardiac output (RV CO) were calculated. Means and standard errors of the mean were calculated for measurements at each time point, for each treatment group. All measurements were averaged on 3 cardiac cycles. Right ventricular pressures at 21 days of hypoxia were recorded using the following protocol: Mice were anesthetized, placed in the supine position on a heated platform (Water-jacketed pad heated with a Gaymar heating pump) and an incision over the right common carotid artery and right jugular vein was made isolating the right jugular taking care not to damage the carotid artery and/or the Vagus nerve. […]
Right ventricular systolic pressure analysis was conducted using LabChart Pro software (ADInstruments) at approximately 60 second intervals of pressure tracing (following a 2 minute period of recording to allow for pressure stabilization). The parameters analyzed were RV diastolic and systolic pressures, heart rate and animal temperature. […]

[2] = tested on: hypoxia-induced pulmonary hypertension in C57BL/6 male mice; assay: Treatment of hypoxia-induced pulmonary hypertension (dosing from Day 14 of hypoxia); conditions: dosing Days 14-21 of hypoxia; for Pulmonary Artery Cross-Sectional Area (PA CSA) / Right Ventricular Free Wall (RVFW) Thickening: 21st day; for Pulmonary Artery Cross-Sectional Area (PA CSA): FIG. 6; for Right Ventricular Free Wall (RVFW) Thickening: FIG. 7
Description: In this Example, the ability of anti-big-ET-1 antibody […] to treat hypoxia-induced pulmonary hypertension in mouse was evaluated. Experimental group animals were subjected to hypoxic conditions for 21 days (Day 1-21) and dosed with […], Bosentan, or control isotype antibody starting on Day 14. At Day 21, animals were evaluated using ultrasound images and measurements of ventricular pressures and cardiac hypertrophy (see Evaluation Materials and Methods in Example 7) and compared to control animals (maintained under normoxic conditions, hypoxia for 14 days, or hypoxia for 14 days followed by normoxia for 7 days). […] C57BL/6 male mice (10-11 weeks old) were weighed and treated or treated and dosed over a course of 21 days as outlined in Table 10. Bosentan was administered orally (PO); anti-big-ET-1 antibody […] and isotype control antibody were administered subcutaneously (SC). Body weights were consistent between groups over the course of this study. Bosentan, an orally active non-selective antagonist of endothelin receptor-A and -B, was used as a positive control while an irrelevant isotype-matched antibody served as the negative control. All procedures were approved by the Regeneron Institutional Animal Care and Use Committee (IACUC). Non-invasive ultrasound scanning was performed to determine pulmonary artery cross-sectional area (PA CSA), right ventricle cardiac output (RV CO) and right ventricular free wall thickness (RVFW) on the 21st day of hypoxia. Right ventricular diastolic and systolic pressures were acquired using a high-fidelity pressure catheter (Mikro-Tip®, Millar Instruments) in the right ventricle; in addition, right ventricular hypertrophy measurements (i.e., weight ratio of right ventricle-to-left ventricle+septum; Fulton Index) were measured at 21 days of hypoxia.

[3] = tested on: bleomycin-induced pulmonary fibrosis in C57BL/6 male mice
Description: Bleomycin-induced lung injury was used to model pulmonary fibrosis in 10-week-old C57BL/6 male mice. Bleomycin sulfate was administered via a single oropharyngeal dose (3.2 U/kg (2.0 mg/kg) in a 2.0 ml/kg volume). Untreated control mice received a transoral instillation of sterile 0.9% saline (2.0 ml/kg). Bosentan, an orally active non-selective antagonist of endothelin receptor-A and -B, was used as a positive control for treatment, while vehicle and an irrelevant isotype matched antibody served as negative controls. Mice were allocated to treatment or control groups with dosing regimens as outlined in Table 11.
Each cage was randomly assigned to a therapeutic treatment group so all mice in the cage received the same treatment. Initial average body weight for each treatment group was similar. Daily body weights were recorded throughout the study. Group body weight average and percent change were analyzed and graphed.
Administration of bleomycin or saline was performed while animals were under anesthesia (isoflurane at a 3.5% to 2-liters/min oxygen flow rate). Sedated mice were placed on a 60-degree tilt board, head up with an elastic band around the incisors. A small cotton tip was used to roll tongue out of the mouth then forceps were used to hold tongue and to open the jaw. During a heavy inhalation, fluid was pipetted into the mouth. Tongue and jaw positions were maintained while mouse remained on the tilt board. Approximately 20 seconds elapsed after pipetting for fluid to disappear and “wheezing” to stop. After treatment instillation, mice were group-housed by treatment conditions (5 animals per cage) in disposable cages for 7 days because of excreted biohazard and then returned to home cages. Disposable cages differed from home cages only by use of a cage top bottle for water instead of use of Thoren rack watering system. All mice were housed in colony on 12 hr (7 am-7 pm) light-dark cycle.
Bosentan was administered by oral gavage twice daily (9:30 am and 6:30 pm) during the week. The initial pretreatment dose and weekend day doses were administered as a single combined BID. As outlined in Table 11, Bosentan dosing continued daily through day 20 of study while antibodies and vehicle were subcutaneously dosed every 3 days through day 18.
Pulmonary function was gauged by measuring arterial oxygen saturation using the Starr Life Sciences, MouseOx small animal vital signs monitor. Measurements were taken around the neck region following hair removal on Days 14 and 17. The MouseOx can monitor the cardio-pulmonary health and degree of lung injury by measuring the level of oxygen carried to the tissues on hemoglobin molecules in red blood cells. A throat collar sensor was used to measure arterial oxygen saturation via the carotid artery in conscious mice. Mice were lightly restrained by hand to confine subject to the cage top food hopper and to reduce movement. […] Once a continuous 15 second block is recorded, the software calculates the average of the above parameters. […] An average arterial oxygen saturation for each treatment group was calculated and analyzed using one-way ANOVA with Bonferroni post-test comparisons of all treatment groups.
On Day 21, mice were administered a terminal dose of Ketamine/Xylazine (120 mg/kg/5 mg/kg IP, respectively). […] Wet and dry lung weights and wet wt. to dry wt. ratios were calculated for each treatment group. […]

[4] = tested on: bleomycin-induced pulmonary fibrosis in C57BL/6 male mice; conditions: 20 days post bleomycin; vs vehicle or isotype control

COc1ccccc1Oc1c(NS(=O)(=O)c2ccc(C(C)(C)C)cc2)nc(-c2ncccn2)nc1OCCO [Bosentan, reference compound]
Pulmonary Artery Cross-Sectional Area (PA CSA) ([1]; H4H6327P2 25 mg/kg SC every 3 days, Bosentan 300 mg/kg PO SID, FIG. 1): showed a similar yet reduced capacity to maintain basal PA CSA; also recorded: significantly lessen the reduction in PA CSA | Right Ventricular Cardiac Output (RV CO) ([1]; preventive dosing, FIG. 2): showed a greater preservation of RV CO compared to the vehicle-treated group | Right Ventricular Free Wall Thickness, systole (RVFW,s) ([1]; preventive dosing, FIG. 4): tends to reduce (not significant) the thickening of the RVFW | Pulmonary Artery Cross-Sectional Area (PA CSA) [2]: significantly reverse the reduction in pulmonary artery cross-sectional area | Pulmonary Artery Cross-Sectional Area (PA CSA) ([2]; listed as bosentan): lessened lumen diameter loss | Right Ventricular Free Wall (RVFW) Thickening [2]: significantly reverse right ventricular free wall (RVFW) thickening | Right Ventricular Free Wall (RVFW) Thickening ([2]; listed as bosentan): attenuated right ventricular free wall (RVFW) thickening | Distal Pulmonary Arteriole Wall Thickening ([2]; FIG. 5): significantly reverses distal pulmonary arteriole wall thickening | Right Ventricular Cardiac Output (RV CO) ([2]; FIG. 9): Greater preservation of RV CO in bosentan-treated vs antibody-treated animals | Right Ventricular Systolic Pressure (RVSP) ([2]; FIG. 10): tends to reduce the RVSP | lung wet weights (in words) ([3]; 21 days post bleomycin, vs isotype control): showed statistically significant reductions in wet lung weights | Wet Weight Rt. Lung (mg) AVG ± SEM ([3]; bleomycin 3.2 U/kg, 21 days post bleomycin): 117 ± 6 mg | % Arterial Blood 02 Saturation AVG ± SEM ([3]; bleomycin 3.2 U/kg, MouseOx throat collar sensor): 93 ± 1% | Total Collagen Rt. Lung (ug) AVG ± SEM ([3]; bleomycin 3.2 U/kg, Sircol soluble collagen, Day 21): 403 ± 38 µg | collagen accumulation in the lung (in words) ([3]; post bleomycin exposure): reduced collagen accumulation in the lung | arterial blood oxygen saturation (in words) [4]: tended to restore arterial blood oxygen saturation closer to baseline levels
